Results published in patent US20110044938A1 (NYCOMED GMBH, priority 2006, published 2011).

Tests used:
[1] = test system: subclones of RKO colon adenocarcinoma cells (RKOp27 or RKOp21) arrested by Ponasterone A; assay: Alamar Blue cell viability assay, cell cycle specific mode of action: cells arrested by ectopic p27Kip1 induced by Ponasterone A versus proliferating cells; assay type: cell-based; settings: Homo sapiens, RKO p27 induced (arrested) cells, 10 μM Ponasterone A, 72 hours, value = class bound given in Table A, read-out: −logIC50 RKO p27 induced (arrested) (converted)
How it was run: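 RKOp27 or RKOp21 cells, 15000/well in DMEM/10% FCS, either arrested by p27Kip1 induced with 10 μM Ponasterone A or proliferating without inducer; compound added after 24 h, 72 h at 37° C. Alamar Blue fluorescence (544/590 nm), viability as % of untreated cells; −log IC50 reported.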

[2] = test system: RKO (RKOp27) human colon adenocarcinoma cells; assay: Alamar Blue cell viability assay, anti-proliferative/cytotoxic activity on proliferating RKO subclones; assay type: cell-based; settings: RKOp27, 72 h, RKO p27 uninduced (proliferating) cells, value = class bound given in Table A, read-out: −logIC50 RKO p27 uninduced (proliferating) (converted)
How it was run: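 RKOp27 subclones (5000 cells/well) were exposed 24 h after seeding to semi-log compound dilutions in DMEM with 10% FCS, in quadruplicate, for 72 h at 37 °C. Viability was read by Alamar Blue fluorescence (544/590 nm) relative to untreated cells (1% DMSO medium). IC50 came from concentration-effect curves and is reported as −log IC50 [mol/l].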

IC50 [1] | Compound | IC50 [2]
≥ 10000 nM | CCOc1ccccc1CCC(=O)Nc1sc2c(c1C#N)CCC(OC(=O)NCc1cn(C)cn1)C2 (stereo not shown) [Example 168, (1-Methyl-1H-imidazol-4-ylmethyl)-carbamic acid 3-cyano-2-[3-(2-ethoxy-phenyl)-propanoylamino]-4,5,6,7-tetrahydro-benzo[b]thiophen-6-yl ester] | ≤ 501 nM
≥ 50100 nM | CCOc1ccccc1CCC(=O)Nc1sc2c(c1C#N)CCC(OC(=O)NCc1ccnn1C)C2 (stereo not shown) [Example 169, (2-Methyl-2H-pyrazol-3-ylmethyl)-carbamic acid 3-cyano-2-[3-(2-ethoxy-phenyl)-propanoylamino]-4,5,6,7-tetrahydro-benzo[b]thiophen-6-yl ester] | ≤ 501 nM
≥ 100000 nM | CCOc1ccccc1CCC(=O)Nc1sc2c(c1C#N)CCC(OC(=O)NCc1cnn(C)c1)C2 (stereo not shown) [Example 170, (1-Methyl-1H-pyrazol-4-ylmethyl)-carbamic acid 3-cyano-2-[3-(2-ethoxy-phenyl)-propanoylamino]-4,5,6,7-tetrahydro-benzo[b]thiophen-6-yl ester] | ≤ 501 nM
≥ 50100 nM | CCOc1ccccc1CCC(=O)Nc1sc2c(c1C#N)CCC(OC(=O)NCc1ccncc1)C2 (stereo not shown) [Example 171, Pyridin-4-ylmethyl-carbamic acid 3-cyano-2-[3-(2-ethoxy-phenyl)-propanoylamino]-4,5,6,7-tetrahydro-benzo[b]thiophen-6-yl ester] | ≤ 501 nM
≥ 100000 nM | CCOc1ccccc1CCC(=O)Nc1sc2c(c1C#N)CCC(OC(=O)NCc1cc(C)on1)C2 (stereo not shown) [Example 172, (5-Methyl-isoxazol-3-ylmethyl)-carbamic acid 3-cyano-2-[3-(2-ethoxy-phenyl)-propanoylamino]-4,5,6,7-tetrahydro-benzo[b]thiophen-6-yl ester] | ≤ 501 nM
≥ 10000 nM | CCOc1ccccc1CCC(=O)Nc1sc2c(c1C#N)CCC(OC(=O)NCc1nccn1C)C2 (stereo not shown) [Example 173, (1-Methyl-1H-imidazol-2-ylmethyl)-carbamic acid 3-cyano-2-[3-(2-ethoxy-phenyl)-propanoylamino]-4,5,6,7-tetrahydro-benzo[b]thiophen-6-yl ester] | ≤ 501 nM
≥ 100000 nM | CCOc1ccccc1CCC(=O)Nc1sc2c(c1C#N)CCC(OC(=O)NCc1ccccn1)C2 (stereo not shown) [Example 174, Pyridin-2-ylmethyl-carbamic acid 3-cyano-2-[3-(2-ethoxy-phenyl)-propanoylamino]-4,5,6,7-tetrahydro-benzo[b]thiophen-6-yl ester] | ≤ 501 nM
≥ 100000 nM | CCOc1ccccc1CCC(=O)Nc1sc2c(c1C#N)CCC(COC(=O)NCc1cccnc1)C2 (stereo not shown) [Example 175, Pyridin-3-ylmethyl-carbamic acid 3-cyano-2-[3-(2-ethoxy-phenyl)-propanoylamino]-4,5,6,7-tetrahydro-benzo[b]thiophen-6-ylmethyl ester] | ≤ 501 nM
≥ 100000 nM | CCOc1ccccc1CCC(=O)Nc1sc2c(c1C#N)CCC(COC(=O)NCCc1cccnc1)C2 (stereo not shown) [Example 176, (2-Pyridin-3-yl-ethyl)-carbamic acid 3-cyano-2-[3-(2-ethoxy-phenyl)-propanoylamino]-4,5,6,7-tetrahydro-benzo[b]thiophen-6-ylmethyl ester] | ≤ 501 nM
≥ 50100 nM | CCOc1ccccc1CCC(=O)Nc1sc2c(c1C#N)CCC(COC(=O)NCc1cncn1C)C2 (stereo not shown) [Example 177, (3-Methyl-3H-imidazol-4-ylmethyl)-carbamic acid 3-cyano-2-[3-(2-ethoxy-phenyl)-propanoylamino]-4,5,6,7-tetrahydro-benzo[b]thiophen-6-ylmethyl ester] | ≤ 501 nM
≥ 50100 nM | CCOc1ccccc1CCC(=O)Nc1sc2c(c1C#N)CCC(COC(=O)NCc1cn(C)cn1)C2 (stereo not shown) [Example 178, (1-Methyl-1H-imidazol-4-ylmethyl)-carbamic acid 3-cyano-2-[3-(2-ethoxy-phenyl)-propanoylamino]-4,5,6,7-tetrahydro-benzo[b]thiophen-6-ylmethyl ester] | ≤ 501 nM
≥ 10000 nM | CCOc1ccccc1CCC(=O)Nc1sc2c(c1C#N)CCC(COC(=O)NCc1ncc[nH]1)C2 (stereo not shown) [Example 179, (1H-Imidazol-2-ylmethyl)-carbamic acid 3-cyano-2-[3-(2-ethoxy-phenyl)-propanoylamino]-4,5,6,7-tetrahydro-benzo[b]thiophen-6-ylmethyl ester] | ≤ 501 nM
≥ 100000 nM | CCOc1ccccc1CCC(=O)Nc1sc2c(c1C#N)CCC(COC(=O)NCc1ccnn1C)C2 (stereo not shown) [Example 180, (2-Methyl-2H-pyrazol-3-ylmethyl)-carbamic acid 3-cyano-2-[3-(2-ethoxy-phenyl)-propanoylamino]-4,5,6,7-tetrahydro-benzo[b]thiophen-6-ylmethyl ester] | ≤ 501 nM
≥ 100000 nM | CCOc1ccccc1CCC(=O)Nc1sc2c(c1C#N)CCC(COC(=O)NCc1ccncc1)C2 (stereo not shown) [Example 181, Pyridin-4-ylmethyl-carbamic acid 3-cyano-2-[3-(2-ethoxy-phenyl)-propanoylamino]-4,5,6,7-tetrahydro-benzo[b]thiophen-6-ylmethyl ester] | ≤ 501 nM
≥ 100000 nM | CCOc1ccccc1CCC(=O)Nc1sc2c(c1C#N)CCC(COC(=O)NCc1cc(C)on1)C2 (stereo not shown) [Example 182, (5-Methyl-isoxazol-3-ylmethyl)-carbamic acid 3-cyano-2-[3-(2-ethoxy-phenyl)-propanoylamino]-4,5,6,7-tetrahydro-benzo[b]thiophen-6-ylmethyl ester] | ≤ 501 nM
≥ 50100 nM | CCOc1ccccc1CCC(=O)Nc1sc2c(c1C#N)CCC(COC(=O)NCc1nccn1C)C2 (stereo not shown) [Example 183, (1-Methyl-1H-imidazol-2-ylmethyl)-carbamic acid 3-cyano-2-[3-(2-ethoxy-phenyl)-propanoylamino]-4,5,6,7-tetrahydro-benzo[b]thiophen-6-ylmethyl ester] | ≤ 501 nM
≥ 100000 nM | CCOc1ccccc1CCC(=O)Nc1sc2c(c1C#N)CCC(COC(=O)NCc1ccccn1)C2 (stereo not shown) [Example 184, Pyridin-2-ylmethyl-carbamic acid 3-cyano-2-[3-(2-ethoxy-phenyl)-propanoylamino]-4,5,6,7-tetrahydro-benzo[b]thiophen-6-ylmethyl ester] | ≤ 501 nM
≥ 10000 nM | CCOc1ccccc1CCC(=O)Nc1sc2c(c1C#N)CCC(OC(=O)NCc1ncc[nH]1)C2 (stereo not shown) [Example 185, (1H-Imidazol-2-ylmethyl)-carbamic acid 3-cyano-2-[3-(2-ethoxy-phenyl)-propanoylamino]-4,5,6,7-tetrahydro-benzo[b]thiophen-6-yl ester] | ≤ 501 nM
≥ 100000 nM | COC(=O)OC1CCc2c(sc(NC(=O)CCc3cccnc3)c2C#N)C1 (stereo not shown) [Example 186, Carbonic acid 3-cyano-2-(3-pyridin-3-yl-propanoylamino)-4,5,6,7-tetrahydro-benzo[b]thiophen-6-yl ester methyl ester] | 501 to 2000 nM
≥ 10000 nM | CCOc1ccccc1CCC(=O)Nc1sc2c(c1C#N)CCC(COC(=O)NCC1CCOCC1)C2 (stereo not shown) [Example 194, (Tetrahydro-pyran-4-ylmethyl)-carbamic acid 3-cyano-2-[3-(2-ethoxy-phenyl)-propanoylamino]-4,5,6,7-tetrahydro-benzo[b]thiophen-6-ylmethyl ester] | ≤ 501 nM
